The text below walks through data of patent US7390910B2, “Compounds for treating tumors” (priority 2003, dated 2008).

For assay [1], the system named is bovine microtubule-associated protein (MAP)-rich tubulin. The assay is classed as biochemical. An outline of the steps:
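This in vitro polymerization assay used bovine tubulin rich in microtubule-associated proteins, prepared at 1.5 mg/ml in GPEM (PEM buffer containing 1 mM GTP) and cleared by a 12,000×g spin. Tubulin solution (100 μl/well) was dispensed onto duplicate 10 μl test samples. Control wells held 0.3% DMSO. A SpectraMax Plus reader recorded turbidity at 340 nm every minute over 60 min at 24° C.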

Assay [2] concerns KBV1. Kind of assay: cells. The format is cell-based. Conditions: for inhibition at 3 µM: KB-V1, 3000 nM; for IC50: 3 days, SRB. As for the experimental part:
(§1) Cell Survival Assay: Standard Pharmacological Test Procedure. […] Compounds are incubated with cells for 3 days.

For assay [3], the system named is KB cells. Description: cells. The format is cell-based. Conditions: for IC50: 3 days, SRB. The procedure: as §1
The test system of assay [4] is KB85. Kind of assay: cells. The format is cell-based. Conditions: for IC50: 3 days, SRB. As for the experimental part:
as §1

Marks after values point to notes of the source that are not given here.

Turning to `CN[C@H](C(=O)N[C@H](C(=O)N(C)[C@H](/C=C(\C)C(=O)N1CCN(C)CC1)C(C)C)C(C)(C)C)C(C)(C)c1cccc(C)c1.O=C(O)C(F)(F)F` [Example 6, N,β,β,3-Tetramethyl-L-phenylalanyl-N^1-[(1S,2E)-1-isopropyl-3-methyl-4-(4-methylpiperazin-1-yl)-4-oxobut-2-enyl]-N^1,3-dimethyl-L-valinamide trifluoroacetic acid salt], in assay [1], the “Tubulin Polym. % inhibition at 0.3 uM” value is reported as 64%. In assay [2] (Homo sapiens), testing at 3 µM gave an inhibition of 33%. Moreover, the IC50 is 64 nM in assay [3] (Homo sapiens, KB, 72 h) and 123 nM in assay [4] (72 h).

With `CN[C@H](C(=O)N[C@H](C(=O)N(C)[C@H](/C=C(\C)C(=O)N1CCC[C@H]1[C@H](OC)[C@@H](C)C(=O)NCCc1ccccc1)C(C)C)C(C)(C)C)C(C)(C)c1ccccc1` [Example 31, N-methyl-3-phenyl-L-valyl-N^1— [(1S,2E)-1-isopropyl-4-((2S)-2-{(1R,2R)-1-methoxy-2-methyl-3-oxo-[(2-phenethyl)amino]propyl}pyrrolidin-1-yl)-3-methyl-4-oxobut-2-enyl]-N^1,3-dimethyl-L-valinamide], the “Tubulin Polym. % inhibition at 0.3 uM” value in assay [1] is reported as 69%. In addition, the IC50 in assay [2] amounted to 191 nM; in assay [3], 0.9 nM; in assay [4], 5.1 nM.

As for `CN[C@H](C(=O)N[C@H](C(=O)N(C)[C@H](/C=C1\NC(=O)NC1=O)C(C)C)C(C)(C)C)C(C)(C)c1ccccc1` [Example 85, N,β,β-trimethyl-L-phenylalanyl-N^1-{(1S)-1-[(Z)-(2,5-dioxo-4-imidazolidinylidene)methyl]-2-methylpropyl}-N^1,3-dimethyl-L-valinamide], in assay [1], the “Tubulin Polym. % inhibition at 0.3 uM” value came out at 59%. For the same compound, the inhibition at 3 µM in assay [2] (Homo sapiens) is 10%. Also, the IC50 in assay [3] (Homo sapiens, KB, 72 h) turned out to be 1070 nM; in assay [4] (72 h), 1740 nM.

On to `CN[C@H](C(=O)N[C@H](C(=O)N(C)[C@H](/C=C(\C)C(=O)N1CCC[C@H]1C(=O)O)C(C)C)C(C)(C)C)C(C)(C)c1ccccc1` [Example 36, N,β,β-trimethyl-L-phenylalanyl-N^1-{(1S,2E)-4-[(2S)-2-carboxypyrrolidin-1-yl]-1-isopropyl-3-methyl-4-oxobut-2-enyl}-N^1,3-dimethyl-L-valinamide], for which the “Tubulin Polym. % inhibition at 0.3 uM” value in assay [1] was found to be 97%. Moreover, at 3 µM the inhibition in assay [2] (Homo sapiens) was 0%. Further, the IC50 in assay [3] (Homo sapiens, KB, 72 h) was 62 nM; in assay [4] (72 h), 205 nM.

`CN[C@H](C(=O)N[C@H](C(=O)N(C)[C@H](/C=C(\C)C(=O)NCc1ccc(-c2ccccc2)cc1)C(C)C)C(C)(C)C)C(C)(C)c1ccccc1` [Example 53, N,β,β-trimethyl-L-phenylalanyl-N-1-{(1S,2E)-4-[(1,1′-biphenyl-4-ylmethyl)amino]-1-isopropyl-3-methyl-4-oxobut-2-enyl}-N^1,3-dimethyl-L-valinamide]: in assay [1], the “Tubulin Polym. % inhibition at 0.3 uM” value was 11%. The “KBV1 % inhibition @ 3000 nM” value in assay [2] is given as 29%. The IC50 is 667 nM in assay [3] and 1680 nM in assay [4].

In the case of `CN[C@H](C(=O)N[C@H](C(=O)N(C)[C@H](/C=C(\C)C(=O)N1CCC[C@H]1[C@H](OC)[C@@H](C)C(=O)N[C@@H](Cc1ccccc1)c1nccs1)C(C)C)C(C)(C)C)C(C)(C)C1CCCCC1` [Example 44, 3-cyclohexyl-N-methyl-L-valyl-N^1-{(1S,2E)-1-isopropyl-4-[(2S)-2-((1R,2R)-1methoxy-2-methyl-3-oxo-3-{[(1S)-2-phenyl-1-(1,3-thiazol-2-yl)ethyl]amino}propyl)pyrrolidin-1-yl]-3-methyl-4-oxobut-2-enyl}-N^1,3-dimethyl-L-valinamide], the “Tubulin Polym. % inhibition at 0.3 uM” value in assay [1] is given as 83%. In addition, the IC50 in assay [2] (Homo sapiens, KB-V1, 72 h) came to 475 nM; in assay [3] (Homo sapiens, KB, 72 h), 1.5 nM; in assay [4] (72 h), 6.2 nM.

In the case of `CN[C@H](C(=O)N[C@H](C(=O)N(C)[C@H](/C=C(\C)C(=O)N1CCN(C)CC1)C(C)C)C(C)(C)C)C(C)(C)c1ccc(C)c(C)c1` [Example 7, N,β,β,3,4-Pentamethyl-L-phenylalanyl-N^1-[(1S,2E)-1-isopropyl-3-methyl-4-(4-methylpiperazin-1-yl)-4-oxobut-2-enyl]-N^1,3-dimethyl-L-valinamide], the “Tubulin Polym. % inhibition at 0.3 uM” value in assay [1] came out at 32%. Besides, the IC50 turned out to be 2190 nM in assay [2] (Homo sapiens, KB-V1, 72 h); 47 nM in assay [3] (Homo sapiens, KB, 72 h); 68 nM in assay [4] (72 h).

Take `CCOP(=O)(OCC)/C(C)=C/[C@H](C(C)C)N(C)C(=O)[C@@H](NC(=O)[C@@H](NC)C(C)(C)c1ccccc1)C(C)(C)C` [Example 71, N,β,β-trimethyl-L-phenylalanyl-N^1-[(1S,2E)-3-(diethoxyphosphoryl)-1-isopropyl-but-2-enyl]-N^1,3-dimethyl-L-valinamide]: the “Tubulin Polym. % inhibition at 0.3 uM” value in assay [1] was found to be 64%. This compound also had an inhibition at 3 µM in assay [2] (Homo sapiens) of 0%. Further, the IC50 was found to be 1300 nM in assay [3] (Homo sapiens, KB, 72 h) and 1750 nM in assay [4] (72 h).

In the case of `CN[C@H](C(=O)N[C@H](C(=O)N(C)[C@H](/C=C(\C)C(=O)c1ccccc1)C(C)C)C(C)(C)C)C(C)(C)c1ccccc1` [Example 80, N,β,β-trimethyl-L-phenylalanyl-N-1-[(1S,2E)-1-isopropyl-3-methyl-4-oxo-4-phenylbut-2-enyl]-N-1,3-dimethyl-L-valinamide], the “Tubulin Polym. % inhibition at 0.3 uM” value in assay [1] turned out to be 70%. Besides, the figures for the IC50 in assay [2], in assay [3] and in assay [4] were 1800 nM, 725 nM and 1330 nM, respectively.

On to `CN[C@H](C(=O)N[C@H](C(=O)N(C)[C@H](/C=C(\C)C(=O)N1CCN(Cc2ccccc2)CC1)C(C)C)C(C)(C)C)C(C)(C)c1ccccc1` [Example 39, N,β,β-trimethyl-L-phenylalanyl-N^1-[(1S,2E)-4-(4-benzylpiperazin-1-yl)-1-isopropyl-3-methyl-4-oxobut-2-enyl]-N^1,3-dimethyl-L-valinamide], for which, in assay [1], the “Tubulin Polym. % inhibition at 0.3 uM” value worked out at 29%. For the same compound, the IC50 is 366 nM in assay [2] (Homo sapiens, KB-V1, 72 h); 15 nM in assay [3] (Homo sapiens, KB, 72 h); 22 nM in assay [4] (72 h).

Regarding `C/C(=C\[C@H](C(C)C)N(C)C(=O)[C@@H](NC(=O)[C@@H](N(C)C)C(C)(C)c1ccccc1)C(C)(C)C)C(=O)N1CCN(Cc2ccccc2)CC1` [Example 15, N,β,β,β-Tetramethyl-L-phenylalanyl-N^1[(1S,2E)-4-(4-benzylpiperazin-1-yl)-1-isopropyl-3-methyl-4-oxobut-2-enyl]-N^1,3-dimethyl-L-valinamide], the “Tubulin Polym. % inhibition at 0.3 uM” value in assay [1] was found to be 77%. Moreover, the IC50 in assay [2] amounted to 354 nM; in assay [3] it was 7.2 nM; in assay [4], 18 nM.

Take `CN[C@H](C(=O)N[C@H](C(=O)N(C)[C@H](/C=C(\C)S(=O)(=O)O)C(C)C)C(C)(C)C)C(C)(C)c1ccccc1` [Example 66, N,β,β-trimethyl-L-phenylalanyl-N^1-[(1S,2E)-1-isopropyl-3-sulfobut-2-enyl] N^1,3-dimethyl-L-valinamide]: in assay [1], the “Tubulin Polym. % inhibition at 0.3 uM” value is listed as 91%. Further, the “KBV1 % inhibition @ 3000 nM” value in assay [2] is 0%. In addition, the “KB % inhibition @ 3000 nM” value in assay [3] (3000 nM) came out at 25%. Moreover, the “KB85 % inhibition @ 3000 nM” value in assay [4] (3000 nM) is on record as 0%.

For `CN[C@H](C(=O)N[C@H](C(=O)N(C)[C@H](/C=C(\C)C(=O)N1CCOCC1)C(C)C)C(C)(C)C)C(C)(C)c1cc(C)cc(C)c1` [Example 3, N,β,β,3,5-Pentamethyl-L-phenylalanyl-N^1-[(1S,2E)-1-isopropyl-3-methyl-4-morpholin-4-yl-4-oxobut-2-enyl]-N^1,3-dimethyl-L-valinamide], in assay [1], the “Tubulin Polym. % inhibition at 0.3 uM” value was 51%. The IC50 turned out to be 1760 nM in assay [2] (Homo sapiens, KB-V1, 72 h); 70 nM in assay [3] (Homo sapiens, KB, 72 h); 176 nM in assay [4] (72 h).

With `CN[C@H](C(=O)N[C@H](C(=O)N(C)[C@H](/C=C(\C)C(=O)N1CCC[C@H]1C(=O)O)C(C)C)C(C)(C)C)C(C)(C)c1cccc(C)c1` [Example 22, N,β,β,3-Tetramethyl-L-phenylalanyl-N^1-{(1S,2E)-4-[(2S)-2-carboxypyrrolidin-1-yl]-1-isopropyl-3-methyl-4-oxobut-2-enyl}-N^1,3-dimethyl-L-valinamide], the “Tubulin Polym. % inhibition at 0.3 uM” value in assay [1] is recorded as 95%. In assay [2] (Homo sapiens), this compound yielded an inhibition at 3 µM of 12%. Also, the IC50 in assay [3] (Homo sapiens, KB, 72 h) is 70 nM; in assay [4] (72 h), 599 nM.

As to `CN[C@H](C(=O)N[C@H](C(=O)N(C)[C@H](/C=C(\C)C(=O)N1CC=C[C@H]1C(=O)O)C(C)C)C(C)(C)C)C(C)(C)c1ccccc1` [Example 48, N,β,β-trimethyl-L-phenylalanyl-N^1-{(1S,2E)-4-[(2S)-2-carboxy-2,5-dihydro-1H-pyrrol-1-yl]-1-isopropyl-3-methyl-4-oxobut-2-enyl}-N^1,3-dimethyl-L-valinamide], in assay [1], the “Tubulin Polym. % inhibition at 0.3 uM” value is recorded as 91(2) %. The compound also returned an inhibition at 3 µM in assay [2] (Homo sapiens) of 15%. Moreover, the IC50 was found to be 58 nM in assay [3] (Homo sapiens, KB, 72 h) and 184 nM in assay [4] (72 h).

As to `CN[C@H](C(=O)N[C@H](C(=O)N(C)[C@H](/C=C(\C)C(=O)N1CCC[C@H]1C(=O)O)C(C)C)C(C)(C)C)C(C)(C)c1ccc(C)c(C)c1` [Example 18, N,β,β,3,4-Pentamethyl-L-phenylalanyl-N^1-{(1S,2E)-4-[(2S)-2-carboxypyrrolidin-1-yl]-1-isopropyl-3-methyl-4-oxobut-2-enyl}-N^1,3-dimethyl-L-valinamide], the “Tubulin Polym. % inhibition at 0.3 uM” value in assay [1] is given as 76%. In assay [2] (Homo sapiens), this compound showed an inhibition at 3 µM of 6%. Moreover, the IC50 was 74 nM in assay [3] (Homo sapiens, KB, 72 h) and 519 nM in assay [4] (72 h).

For `CNC(C(=O)NC(C(=O)N(C)C(C=C(C)C=C(C)C(=O)O)C(C)C)C(C)(C)C)C(C)(C)c1ccccc1` (centres unmarked) [Example 79, 6-{[3,3-Dimethyl-2-(3-methyl-2-methylamino-3-phenyl-butyrylamino)-butyryl]-methyl-amino}-2,4,7-trimethyl-octa-2,4-dienoic acid], the “Tubulin Polym. % inhibition at 0.5 uM” value in assay [1] (0.5 uM) is listed as 90*** %. Also, the IC50 in assay [2] (Homo sapiens, KB-V1, 72 h) was determined as 1580 nM; in assay [3] (Homo sapiens, KB, 72 h), 27 nM; in assay [4] (72 h), 53 nM.

Broadly, the inhibition is the change of the read-out against control, counted positive when it falls. Low readings indicate a weak effect, high ones a strong effect. Broadly, the IC50 is the concentration needed to halve the response being measured. Low readings indicate inhibition by little substance, high ones a need for much substance.
